Experimental findings from PubChem BioAssay AID624278 (The Scripps Research Institute Molecular Screening Center, 2012) are described below.

What all share (experiment): IL-17 and IL-23R mRNA reduction by inverse agonists – cell-based, qPCR, endogenous IL-17 and IL-23R, fluorescence, mechanism study for RORC inverse agonist project, late-stage follow-up (AID 624278)
For orientation: Real-time PCR tracks product formation cycle by cycle.

One experiment deals with IL-17. As to conditions: EL-4 murine T cells, IL-17/IL-23R qPCR, PMA/ionomycin, at 5 µM, stronger effect = lower value.
In experiment [1] the target is Interleukin-17A (Mus musculus) (UniProt Q62386). As to conditions: EL-4 murine T cells, IL-17/IL-23R qPCR, PMA/ionomycin; IL-17; Protein.
Interleukin-17A (Mus musculus), sequence (Q62386 whole entry, looked up): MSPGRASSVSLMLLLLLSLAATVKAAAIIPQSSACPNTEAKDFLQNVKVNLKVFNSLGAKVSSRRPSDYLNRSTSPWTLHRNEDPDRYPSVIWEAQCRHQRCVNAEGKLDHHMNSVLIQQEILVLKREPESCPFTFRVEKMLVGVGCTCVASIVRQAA
A further experiment has as its system IL-23R. The settings on record: EL-4 murine T cells, IL-17/IL-23R qPCR, PMA/ionomycin, at 5 µM, stronger effect = lower value.

Calls of active or inactive are those of the source.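 How the source made its calls: active means target gene mRNA expression lowered over 20% below the solvent-only control in each of three panels; inactive means the rest.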

As for `OC(c1ccc(-c2ccc(CN3CCN(Cc4ccncc4)CC3)cc2)c(F)c1)(C(F)(F)F)C(F)(F)F`, the relative protein level in the experiment with IL-17 (IL-17 protein level) was 0.6. The relative gene expression with IL-17 (mRNA) was 0.1; with IL-23R, 0.2. Further, the outcome in experiment [1] was active.
